The target in one test is T1, ACAD11 (Homo sapiens, UniProt Q709F0).
T1 construct: endogenous in cells
T1 sequence (Q709F0 1-780): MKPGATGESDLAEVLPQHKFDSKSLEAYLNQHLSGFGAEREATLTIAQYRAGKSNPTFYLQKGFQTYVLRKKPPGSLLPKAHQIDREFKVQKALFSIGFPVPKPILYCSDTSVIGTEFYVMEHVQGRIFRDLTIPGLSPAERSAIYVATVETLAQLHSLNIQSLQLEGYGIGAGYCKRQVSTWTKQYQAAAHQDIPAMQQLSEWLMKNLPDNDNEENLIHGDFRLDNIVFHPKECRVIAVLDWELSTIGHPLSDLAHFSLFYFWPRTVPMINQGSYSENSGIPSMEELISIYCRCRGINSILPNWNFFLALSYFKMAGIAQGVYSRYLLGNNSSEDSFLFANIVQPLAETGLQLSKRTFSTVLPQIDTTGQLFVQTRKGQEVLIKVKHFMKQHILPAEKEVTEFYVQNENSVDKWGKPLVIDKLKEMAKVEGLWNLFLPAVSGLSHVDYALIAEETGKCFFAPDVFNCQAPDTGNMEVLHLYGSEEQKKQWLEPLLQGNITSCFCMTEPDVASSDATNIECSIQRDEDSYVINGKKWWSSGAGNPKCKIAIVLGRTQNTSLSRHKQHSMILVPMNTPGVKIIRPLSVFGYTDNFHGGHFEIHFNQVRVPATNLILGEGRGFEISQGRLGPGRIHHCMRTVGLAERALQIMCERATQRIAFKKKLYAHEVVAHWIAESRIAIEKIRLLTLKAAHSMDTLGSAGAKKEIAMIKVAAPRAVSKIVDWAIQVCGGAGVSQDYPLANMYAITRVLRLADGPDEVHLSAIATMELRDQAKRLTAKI
Put plainly: Kinobeads competition binding: ACAD11. The settings on record: target ACAD11. An excerpt: Supplement 41589_2023_1459_MOESM4_ESM.xlsx, sheet "CATDS matrix" | column: ACAD11

The next test concerns MAPK7. In words: Kinobeads competition binding: MAPK7. Also on record: species or system human. To be noted: target MAPK7.
The target in another test is T2, AXL (Homo sapiens, UniProt P30530).
T2 construct: endogenous in cells
T2 sequence (P30530 26-894): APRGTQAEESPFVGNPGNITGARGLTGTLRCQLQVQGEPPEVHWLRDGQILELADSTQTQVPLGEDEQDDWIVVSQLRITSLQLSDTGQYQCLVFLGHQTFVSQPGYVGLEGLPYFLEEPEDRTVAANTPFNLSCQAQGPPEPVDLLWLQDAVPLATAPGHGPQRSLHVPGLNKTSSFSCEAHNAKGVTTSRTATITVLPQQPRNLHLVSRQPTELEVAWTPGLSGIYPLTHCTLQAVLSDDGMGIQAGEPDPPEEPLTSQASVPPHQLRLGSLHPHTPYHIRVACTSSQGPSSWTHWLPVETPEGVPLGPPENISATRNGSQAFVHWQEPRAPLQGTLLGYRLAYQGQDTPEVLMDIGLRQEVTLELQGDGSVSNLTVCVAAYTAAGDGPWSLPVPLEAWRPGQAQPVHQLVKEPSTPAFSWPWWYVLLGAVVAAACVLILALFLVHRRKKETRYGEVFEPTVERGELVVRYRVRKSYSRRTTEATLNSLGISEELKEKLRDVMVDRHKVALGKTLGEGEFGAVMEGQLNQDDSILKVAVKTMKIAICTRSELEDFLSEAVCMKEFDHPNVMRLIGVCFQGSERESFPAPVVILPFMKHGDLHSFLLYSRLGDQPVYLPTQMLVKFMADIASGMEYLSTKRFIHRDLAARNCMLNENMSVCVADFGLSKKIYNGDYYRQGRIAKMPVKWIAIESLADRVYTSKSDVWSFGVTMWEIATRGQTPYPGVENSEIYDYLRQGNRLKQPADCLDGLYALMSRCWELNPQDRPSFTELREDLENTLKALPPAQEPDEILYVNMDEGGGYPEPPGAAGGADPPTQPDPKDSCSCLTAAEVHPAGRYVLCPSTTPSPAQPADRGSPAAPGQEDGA
Put plainly: Kinobeads competition binding: AXL. To be noted: target AXL. An excerpt:
Supplement 41589_2023_1459_MOESM4_ESM.xlsx, sheet "CATDS matrix" | column: AXL

Another test deals with DDR2. Put plainly: Kinobeads competition binding: DDR2.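 Also: target engagement share of this target among all targets at its Kdapp concentration.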 To be noted: target DDR2. Also on record: species or system human.
In another test the target is T3, ACVR1B (Homo sapiens, UniProt P36896).
T3 construct: endogenous in cells
T3 sequence (P36896 24-505): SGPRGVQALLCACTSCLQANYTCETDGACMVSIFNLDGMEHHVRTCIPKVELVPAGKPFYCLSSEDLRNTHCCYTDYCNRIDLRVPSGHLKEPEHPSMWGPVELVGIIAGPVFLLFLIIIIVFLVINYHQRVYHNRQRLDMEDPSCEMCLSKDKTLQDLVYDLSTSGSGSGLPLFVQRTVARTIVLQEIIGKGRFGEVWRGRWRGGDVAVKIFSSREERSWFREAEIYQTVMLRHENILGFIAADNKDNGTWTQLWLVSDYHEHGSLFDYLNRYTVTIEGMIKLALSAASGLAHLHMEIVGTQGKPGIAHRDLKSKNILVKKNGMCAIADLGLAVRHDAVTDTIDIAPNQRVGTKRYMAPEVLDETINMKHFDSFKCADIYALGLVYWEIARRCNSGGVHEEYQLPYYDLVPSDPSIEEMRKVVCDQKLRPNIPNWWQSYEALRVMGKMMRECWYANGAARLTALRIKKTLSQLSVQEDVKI
In words: Kinobeads competition binding: ACVR1B. The settings on record: target ACVR1B.

Another test has as its system LCK. In words: Kinobeads competition binding: LCK. Details: species or system human. The settings on record: target LCK.
The subject of a further test is HSP90AA1. In words: Kinobeads competition binding: HSP90AA1.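 Also: share of total target engagement due to this protein at one drug concentration.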 Also on record: species or system human. To be noted: target HSP90AA1.
For the next test, the target named is T4, ERN2 (Homo sapiens, UniProt Q76MJ5).
T4 construct: endogenous in cells
In words: Kinobeads competition binding: ERN2. The settings on record: target ERN2.

In another test the test system is PIK3C2B. In words: Kinobeads competition binding: PIK3C2B. Also on record: species or system human. The settings on record: target PIK3C2B.
In a further test the target is T5, MAPKAPK2 (Homo sapiens, UniProt P49137).
T5 construct: endogenous in cells
Put plainly: Kinobeads competition binding: MAPKAPK2. To be noted: target MAPKAPK2.

For the next test, the system named is MAP2K1. In words: Kinobeads competition binding: MAP2K1. Details: species or system human. To be noted: target MAP2K1.
The target in a further test is T6, CDK7 (Homo sapiens, UniProt P50613).
T6 construct: endogenous in cells
In words: Kinobeads competition binding: CDK7. The settings on record: target CDK7.

A further test concerns MAP2K5. Put plainly: Kinobeads competition binding: MAP2K5. Details: species or system human. The settings on record: target MAP2K5.
In another test the test system is ACOX3. In words: Kinobeads competition binding: ACOX3.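 Also: share of all-target engagement taken by this protein at its own Kdapp concentration.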 Details: species or system human. To be noted: target ACOX3.

T6 sequence (P50613 whole entry): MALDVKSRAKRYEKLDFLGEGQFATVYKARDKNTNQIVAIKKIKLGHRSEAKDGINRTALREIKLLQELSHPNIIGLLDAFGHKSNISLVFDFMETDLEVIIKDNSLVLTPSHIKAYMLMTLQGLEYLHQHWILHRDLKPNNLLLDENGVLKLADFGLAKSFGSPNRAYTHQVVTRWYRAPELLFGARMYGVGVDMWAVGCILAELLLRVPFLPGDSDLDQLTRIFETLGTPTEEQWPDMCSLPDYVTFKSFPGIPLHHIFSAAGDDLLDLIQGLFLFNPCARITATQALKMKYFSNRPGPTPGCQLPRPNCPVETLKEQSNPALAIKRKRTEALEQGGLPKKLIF
T4 sequence (Q76MJ5 35-926): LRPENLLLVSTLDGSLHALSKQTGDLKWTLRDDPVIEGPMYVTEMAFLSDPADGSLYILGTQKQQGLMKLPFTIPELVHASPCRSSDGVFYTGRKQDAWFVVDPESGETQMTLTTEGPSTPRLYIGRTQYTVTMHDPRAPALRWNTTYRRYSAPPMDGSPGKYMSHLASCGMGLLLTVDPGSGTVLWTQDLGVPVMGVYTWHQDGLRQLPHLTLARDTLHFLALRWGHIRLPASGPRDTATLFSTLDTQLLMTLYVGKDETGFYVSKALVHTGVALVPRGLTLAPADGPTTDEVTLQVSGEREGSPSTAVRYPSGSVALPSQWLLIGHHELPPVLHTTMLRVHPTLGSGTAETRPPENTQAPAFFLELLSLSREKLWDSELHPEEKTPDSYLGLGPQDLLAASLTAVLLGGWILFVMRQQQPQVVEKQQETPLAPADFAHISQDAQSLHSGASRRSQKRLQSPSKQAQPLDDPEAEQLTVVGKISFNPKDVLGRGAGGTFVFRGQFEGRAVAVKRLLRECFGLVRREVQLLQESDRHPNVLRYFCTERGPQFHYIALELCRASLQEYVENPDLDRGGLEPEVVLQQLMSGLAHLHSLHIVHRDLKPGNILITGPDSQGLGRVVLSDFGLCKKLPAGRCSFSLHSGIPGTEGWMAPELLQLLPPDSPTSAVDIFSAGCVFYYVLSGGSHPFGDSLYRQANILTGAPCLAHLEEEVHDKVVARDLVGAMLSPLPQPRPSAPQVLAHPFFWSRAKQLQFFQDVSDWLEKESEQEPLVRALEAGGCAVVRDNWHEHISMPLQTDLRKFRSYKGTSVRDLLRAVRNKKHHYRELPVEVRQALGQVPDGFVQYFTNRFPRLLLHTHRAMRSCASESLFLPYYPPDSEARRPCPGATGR
T5 sequence (P49137 whole entry): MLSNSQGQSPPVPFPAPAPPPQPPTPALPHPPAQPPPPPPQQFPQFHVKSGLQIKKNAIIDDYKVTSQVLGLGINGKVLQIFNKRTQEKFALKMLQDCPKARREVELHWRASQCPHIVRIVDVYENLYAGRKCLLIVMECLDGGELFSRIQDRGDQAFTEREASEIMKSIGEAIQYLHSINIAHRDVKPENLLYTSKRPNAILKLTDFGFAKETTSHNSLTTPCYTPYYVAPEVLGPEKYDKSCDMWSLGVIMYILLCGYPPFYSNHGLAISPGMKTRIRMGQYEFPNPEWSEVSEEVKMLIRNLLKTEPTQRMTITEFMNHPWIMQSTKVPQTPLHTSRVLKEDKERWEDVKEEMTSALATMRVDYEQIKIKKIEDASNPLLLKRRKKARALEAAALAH

For the compound `Nc1ncnc2[nH]c(-c3ccccc3)nc12` [AH5015_KCGS], the CATDS at ACAD11, in the test on MAPK7, at AXL, with DDR2, at ACVR1B and in the test on LCK was 0 each time. For the same compound, the CATDS in the test on HSP90AA1 was determined as 0; at ERN2, 0; with PIK3C2B, 0; on MAPKAPK2 it was 0; with MAP2K1, 0; at CDK7, 0.1088. The CATDS in the test on MAP2K5 and in the test with ACOX3 was 0 in each case.

In the case of `CCN1CCN(Cc2ccc(Nc3ncc(F)c(-c4cc(F)c5nc(C)n(C(C)C)c5c4)n3)nc2)CC1` [Abemaciclib], the CATDS at ACAD11, in the test on MAPK7, on AXL, in the test with DDR2, at ACVR1B and in the test with LCK was 0 throughout. Besides, the CATDS in the test with HSP90AA1, at ERN2, in the test on PIK3C2B, at MAPKAPK2, with MAP2K1 and on CDK7 was 0 in each case. The CATDS with MAP2K5 and with ACOX3 was 0 throughout.

For `CN(C)C/C=C/C(=O)Nc1cc2c(Nc3ccc(F)c(Cl)c3)ncnc2cc1O[C@H]1CCOC1` [Afatinib], the CATDS at ACAD11, on AXL, in the test with HSP90AA1 and with ACOX3 was 0 each time.

`CCc1cc2c(cc1N1CCC(N3CCOCC3)CC1)C(C)(C)c1[nH]c3cc(C#N)ccc3c1C2=O` [Alectinib]: the CATDS on ACAD11, in the test on MAPK7, at AXL, in the test on DDR2, on ACVR1B and in the test with LCK was 0 in each case. For the same compound, the CATDS with HSP90AA1, at ERN2, with PIK3C2B, at MAPKAPK2, in the test on MAP2K1 and on CDK7 was 0 in each case. Further, the CATDS in the test with MAP2K5 and in the test on ACOX3 was 0 each time.

For `N#CC1(c2ccc(NC(=O)c3cccnc3NCc3ccncc3)cc2)CCCC1` [Apatinib], the CATDS on ACAD11, with MAPK7, on AXL, in the test on DDR2, on ACVR1B and with LCK was 0 throughout. The CATDS in the test on HSP90AA1, on ERN2, in the test on PIK3C2B, at MAPKAPK2, in the test on MAP2K1 and at CDK7 was 0 each time. The CATDS with MAP2K5 and in the test with ACOX3 was 0 throughout.
